Structures can show the parent of a compound that is named as a salt. Where two headings read alike, the source gives them in different places.
Experiments:
[1] = capsule, doses of 1 to 8 mg, adult or adolescent; cited from earlier work
[2] = physchem; type: physicochemical
Source text: To make a solution, one must attain sufficient solubility to achieve efficacious levels of an active pharmaceutical ingredient (API) while avoiding precipitation.

[3] = type: physicochemical; conditions: for impurities: four weeks
Source text: A solution must be stable for commercially reasonable periods. […] In experimenting with buffering agents such as tartrate and citrate, precipitation of dasotraline HCl was discovered.

[4] = type: physicochemical
Source text: In addition to chemical/physical stability, the formulation must remain free of microbial growth for commercially reasonable periods. Several common preservatives failed when combined with dasotraline HCl and malate buffer.

pH window of maximal solubility in water [2] | solubility ([2]; pH 2.2, aqueous buffer) | solubility ([2]; pH 2.7, aqueous buffer) | solubility ([2]; pH 3, aqueous buffer) | solubility ([2]; pH 3.4, aqueous buffer) | solubility ([2]; pH 3.9, aqueous buffer) | solubility ([2]; pH 4.4, aqueous buffer) | solubility ([2]; pH 4.9, aqueous buffer) | impurities ([3]; 10 mM malate buffer, pH≤3.5, 60° C.) | impurities ([3]; higher (25 mM) malate buffer amount, pH>3, 60° C.) | physical stability of solution ([3]; pH 3) | physical stability of solution ([3]; pH 3.5) | physical stability of solution ([3]; pH 5) | physical stability of solution [4] | stability of solution ([4]; 4 weeks) | impurities ([4]; malate buffer, 5% propylene glycol, further stress beyond four weeks at 60° C.) | Compound | abuse liability [1] | efficacy in treating ADHD [1] | stability of solution [4]
– | – | – | – | – | – | – | – | – | – | – | – | – | – | – | – | N[C@@H]1CC[C@@H](c2ccc(Cl)c(Cl)c2)c2ccccc21 [dasotraline, (1R,4S)-4-(3,4-dichlorophenyl)-1,2,3,4-tetrahydronaphthalen-1-amine] | no detectable abuse liability | effective in treating ADHD | –
2.0-3.0 pH | 1900 µg/mL | 2200 µg/mL | 2100 µg/mL | 1300 µg/mL | 800 µg/mL | 600 µg/mL | 400 µg/mL | no detectable impurities | > 0.1% | precipitation | precipitation | precipitation | induced precipitation | effective up to four weeks at 60 °C | > 0.1% | N[C@@H]1CC[C@@H](c2ccc(Cl)c(Cl)c2)c2ccccc21 [dasotraline HCl] | – | – | stable solution under all conditions tested

Reference: patent US20200405867A1, “ORAL DOSAGE FORMS” (Sunovion Pharmaceuticals Inc., priority 2018, published 2020)
